Data from patent publication US6689814B1, “Use of dialkyldialkylammonium halide for the preparation of a virucidal medicament intended to be administered by the systemic route” (priority 1998, dated 2004).
“And” between values parts separate entries of the source, which are not always exact repeats. Equal entries are not always repeated.

Legend:
Herpesvirus simplex [1] = assay: Example 1: Herpes simplex nasal infection of Nude mice, Bardac intraperitoneal, 14-day monitoring; format: in vivo, nu/nu Nude mice; details: 0.025 mg i.p. twice a day
Description: Three-week-old female nu/nu Nude mice, having an average weight of 6 to 8 g, divided into two batches of 20 animals, a control group receiving only the virus (curve -x- in FIG. 1), and one group being treated with Bardac® (curve -●- in FIG. 1).
Herpesvirus simplex batch having a titer of 10′ PFU (Plaque Forming Units)/ml.
Didecyldimethylammonium chloride (Bardac®) provided by the Swiss company Lonza and used in the form of a dilution in an isotonic saline solution.
Inoculation of the virus: 30 μl by the nasal route of pure viral suspension, which corresponds to an installation of about 10^4 PFU (viral load). The inoculation is carried out according to the protocol described by KERN et al. in Antiviral Res., 1986, 6, 189-195. One mouse died during the nasal instillation.
Bardac®: inoculation by the intraperitoneal route, twice a day of a dose of 0.025 mg of the product by injection, i.e. a daily dose of 0.050 mg. According to the manufacturer (LONZA), the LD50 by the intravenous route is about 0.20 mg/10 g of mouse.
On day D0, Bardac® is injected in the morning, and 4 hours later nasal instillation of the virus is carried out, followed 6 hours later by the second injection of Bardac®; on the following days, the injections were carried out around 9 am and 5 pm.

Herpesvirus simplex [2] = assay: Example 2: Herpes simplex nasal infection of mice, Bardac intraperitoneal, 6-day monitoring and lung infectious titer; format: in vivo
Procedure: (§1) A test similar to the one described in Example 1 was carried out using two groups of 17 mice, one Herpesvirus simplex batch having a titer of 2×10^2 PFU/ml, by inoculating a Bardac® dose of 0.018 mg by injection (that is to say a daily-dose of 0.036 mg) and following the protocol below: on day D0, Bardac® is injected and, 12 hours later, nasal instillation of the virus is carried out, followed by intraperitoneal injections of Bardac® every twelve hours. Monitoring was carried out twice per day for six days.
(§2) At the end of the monitoring period, the lungs of the animals in the two groups were collected for culturing, in order to detect the presence of the virus. Detection of the virus is carried out as follows: the lung is homogenized in a DOUNCE® mixer and then suspended in a sterile test tube and centrifuged for 10 minutes at 2000 rpm. If the sample is not analyzed immediately, it is stored at −80° C. The infectious titer of the lung is given by titrating the virions present in 0.3 ml of centrifugation supernatant and multiplying the number of PFU by ten.

Herpesvirus simplex [3] = assay: Example 3: protocol of Example 2 with two batches of 52 animals; format: in vivo, mice
Procedure: as §1, §2
The protocol followed is identical to that of Example 2 with two batches of 52 animals.

[4] = mouse, according to the manufacturer (LONZA); cited from earlier work

Compound: CCCCCCCCCC[N+](C)(C)CCCCCCCCCC.[Cl-] [Bardac®, didecyldimethylammonium chloride]
- percentage of survivals (Herpesvirus simplex [1]; treated group of 20 mice, about 10^4 PFU nasal, 14 days monitoring, control 10%): 45%
- average duration of the disease (Herpesvirus simplex [1]; treated group, control 8.5 days): 9.2 days
- infectious titer in the lung, individual treated mouse (Herpesvirus simplex [2]; mouse alive at D6): 0 PFU (7×) and 20 PFU (2×) and 100 PFU
- infectious titer in the lung, individual treated mouse (Herpesvirus simplex [2]; mouse dead at D5): 0 PFU
- infectious titer in the lung, individual treated mouse (Herpesvirus simplex [2]; mouse dead at D6): 0 PFU (2×) and 20 PFU and 150 PFU and 50 PFU and 200 PFU
- total infectious titer in the lungs (Herpesvirus simplex [2]; sum over the 17 treated mice, control >3200): 560 PFU
- percentage of survivals on day D6 (Herpesvirus simplex [2]; treated group of 17 mice, 0.018 mg i.p. every twelve hours, control 29%): 59%
- mice alive on day D6 (Herpesvirus simplex [2]; treated group of 17 mice, 0.018 mg i.p. every twelve hours, control five): ten
- number of infected mice (Herpesvirus simplex [2]; treated group of 17 mice, control 15): 7
- percentage of mice infected (Herpesvirus simplex [2]; treated group of 17 mice, control 88%): 41%
- effect on mortality and infectious titer (in words) (Herpesvirus simplex [2]; treated group versus control group): less affected by the virus
- infectious titer in the lung, individual infected treated mouse (Herpesvirus simplex [3]; mouse alive at D6): > 1000 PFU (2×) and 20 PFU (2×) and 120 PFU and 250 PFU and 80 PFU
- infectious titer in the lung, individual infected treated mouse (Herpesvirus simplex [3]; mouse dead at D3): > 1000 PFU and 50 PFU
- infectious titer in the lung, individual infected treated mouse (Herpesvirus simplex [3]; mouse dead at D5): 300 PFU and 160 PFU and 50 PFU and 40 PFU
- total infectious titer (Herpesvirus simplex [3]; sum over the 13 infected treated mice, control >11930): >4100 PFU
- factor by which the infectious titer (in PFU) is reduced (Herpesvirus simplex [3]; treated animals versus control group, overall): 3
- number of live mice on the sixth day (Herpesvirus simplex [3]; treated group of 52 mice, control 22): 39
- number of mice infected with the virus (Herpesvirus simplex [3]; treated group of 52 mice, control 37): 13
- percentage of survivors on the sixth day (Herpesvirus simplex [3]; treated group of 52 mice, control 42%): 75%
- percentage of mice infected with the virus (Herpesvirus simplex [3]; treated group of 52 mice, control 71%): 25%
- LD50 by the intravenous route [4]: about 0.20 mg/10 g of mouse
